≈ marks a conversion by molar mass, not a printed value. Where two headings read alike, the source gives them in different places.
What was measured:
[1] = test system: HuH7 cells; experiment: MTT antiproliferative (growth inhibition) assay on HuH7 cells; format: cell-based, human; conditions: for IC50: Homo sapiens, Huh-7, MTT
Description: (§1) MTT was purchased from DUCHEFA Biochemie ([…]). Sunitinib, and sodium dodecyl sulfate, bovine serum albuminwere obtained from Sigma Aldrich (Singapore). Sorafenib was purchase from Ontario Chem. Fetal bovine serum (FBS) was obtained from Invitrogen. Human hepatocellular carcinoma cells (HuH-7 and Hep G2), and human diploid fibroblast strain (IMR 90). HuH7 was obtained as gifts from Dr Ho Han Kiat, Department of Pharmacy, NUS. IMR90 and Hep G2 were purchased from American Type Culture Collection (ATCC). HuH-7 cells were cultured in DMEM (Dulbecco's Modified Eagle Medium, high glucose) with 10% v/v fetal bovine serum (FBS), 100 mg/L penicillin G and 100 mg/L streptomycin. IMR 90 cell were cultured in EMEM (Eagle's Minimum Essential Medium), with 10% v/v FBS and 100 mg/L penicillin G and 100 mg/L streptomycin. The cells were sub-cultured when HuH7 or Hep G2 reached a density of 70-80×10^5 cell/T75 flask, and IMR 90 reached 20×10^5 cell/T75 flask. Cells were used within 2-10 passages for viability experiments.
(§2) The anti-proliferative activity of the test compounds were determined by the MTT assay. An aliquot (200 μL, 3×10^4 cells/mL for HuH7, 3.75×10^4 cells/mL for Hep G2, and 2×10^4 cells/mL for IMR 90) of medium was added to each well of the microtitre plate. […] The existing medium was removed from each well and replaced by fresh medium (200 μL) containing a known concentration of test compound. The final concentration of DMSO in each well was maintained at 0.5% v/v. (1% v/v was also utilized if the compounds were not soluble) The test compounds were incubated with the cells for another 72 h at 37 deg C., 5% CO2. The medium was then removed from the well and replaced with FBS free medium (200 μL) and MTT (50 μL of 2 mg/mL solution in phosphate buffer saline, pH 7.4). The phosphate buffer saline comprises 10 mM of potassium phosphate and 137 mM sodium chloride. After incubation (3 h) at 37 deg C., 5% CO2, the supernatant was removed and a solution of 200 μL DMSO and 25 μL Sorenson buffer (0.1 M glycine, 0.1 M sodium chloride, adjusted to pH 10.5 with 0.1 M sodium hydroxide) was added to dissolve the formazan crystals in each well. Vehicle control were cells grown in 1% v/v DMSO/Medium for 72 h, 37 deg C., 5% CO2 while blank controls were wells that contained only 200 μL DMSO and 25 μL Sorenson buffer. Absorbances were measured at 570 nm on a microplate reader (Tecan, Infinite 200). The viability of cells at a given concentration of test compound was determined from the expression:
(§3) [formula] where abs_compound=absorbance of wells containing cells and test compound, abs_vehicle (Not the same as above. Change to abs_vehicle)=absorbance of vehicle control and abs_blank=absorbance of blank control.
(§4) Each concentration of test compound was evaluated at least 3 times on separate occasions, and two different stock solution were used. The IC50 value (concentration that inhibited 50% of cell growth) was determined from the sigmoidal curve obtained by plotting percentage viability versus logarithmic concentration of test compound using GraphPad Prism 5 (San Diego, USA).

[2] = test system: Hep G2; experiment: MTT antiproliferative assay on Hep G2 cells; format: cell-based; conditions: Homo sapiens, HepG2, 72 h
Description: as §1, §2, §3, §4

[3] = test system: IMR 90; experiment: MTT antiproliferative assay on non-malignant IMR 90 fibroblasts; format: cell-based; conditions: non-malignant human lung fibroblast IMR 90, MTT, 72 h
Description: as §1, §2, §3, §4

[4] = test system: CYP1A1; experiment: EROD assay, induction of CYP1A1 activity in HuH7 cells; format: cell-based, human; conditions: broad range of concentrations spanning growth inhibitory concentrations, FIG. 2
Description: The induction of CYP1A1 activity was monitored by the 7-ethoxyresorufin O-deethylase (EROD) assay. EROD is a CYP1A1 enzyme and induction of its activity would result in the formation of more resorufin, a fluorescent compound. By monitoring resorufin levels in cells that are exposed to test compound and comparing the levels with those in untreated cells, it is possible to identify compounds that induce EROD activity.
Readings were taken at λexcitation of 530 nm and λemission of 590 nm on a fluorometer (Name the plate reader). Background fluorescence of the test compound was determined at the same wavelengths to take into account its contribution to the observed readings. Readings of “blank” wells that contained only media and “control” wells with only HuH7 cells in media (with 1% DMSO) were also determined. β-napthoflavone (BNF), a known inducer of CYP1A1 activity (give ref) was used as a positive control. The extent to which EROD activity was induced is given by the expression: Degree of induction=(FCells+Test Compound−FBlank)/(FControl−FBlank)
Where Fcells+test compound=fluorescence of wells containing treated cells; FBlank=fluorescence of well containing media only; FControl=fluorescence readings of wells containing untreated cells. The test compounds were not fluorescent at the excitation and emission wavelengths used in this assay. Two separate determinations were made for each concentration of test compound.

[5] = Aqueous solubility on Multiscreen Solubility filter plates; format: physicochemical; conditions: aqueous solution on Multiscreen Solubility filter plates, aqueous buffer, kinetic from dmso stock, mean of 3 determinations
Experimental: (§5) Solubility and PAMPA permeability (Pe) are important physicochemical indicators of drug-like character. Determination of aqueous solubility was carried out on Multiscreen® Solubility filter plates (Millipore-MSSLBPC10) from Millipore Corporation (MA, USA). The protocol (PC2445EN00, Millipore Corporation) was followed. Pe determinations were carried out on MultiScreen-IP PAMPA assay (donor) plates (MAIPNTR10) and MultiScreen Receiver Plates (MATRNPS50) from Millipore Corporation (USA) with 1% lecithin (L-α-phosphatidylcholine from lyophilized powder of egg yolk, Sigma Aldrich, USA) in dodecane (ReagentPlus®, Sigma Aldrich, USA) as lipid barrier.

[6] = PAMPA permeability (Pe); format: physicochemical; conditions: for Pe (×10^−6 cm/s): 1% lecithin in dodecane, mean of 3 determinations
Experimental: as §5

[7] = 72 h (Table 9), read-out: IC50 (μM) HuH7
[8] = 72 h incubation, mean and SD of 3 or more independent determinations (Tables 1-8), read-out: IC 50

In the case of `CCCNS(=O)(=O)c1cccc(C=C2C(=O)Nc3cc(F)ccc32)c1` [Compound 3-12, E/Z-3-(6-Fluoro-2-oxo-1,2-dihydro-indol-3-ylidenemethyl)-N-propyl-benzenesulfonamide], the IC50 [1, 7] is reported as 0.12 ± 0.01 µM, the IC50 [1, 8] is reported as 0.12 ± 0.01 µM and the “potency relative to 1-10 on HuH7” value ([1]; compared with 1-10 (original lead)) is reported as 4 ×. For the same molecule, the IC50 [2] was 0.72 ± 0.12 µM.

`CCNS(=O)(=O)c1cccc(/C=C2/C(=O)Nc3cc(F)ccc32)c1` [Compound 3-11, (E)-3-(6-Fluoro-2-oxo-1,2-dihydro-indol-3-ylidenemethyl)-N-ethyl-benzenesulfonamide] gave an IC50 [1, 7] of 0.39 ± 0.07 µM, an IC50 [1, 8] of 0.39 ± 0.07 µM and an IC50 [2] of 1.61 ± 0.16 µM.

With `CNS(=O)(=O)c1cccc(/C=C2/C(=O)Nc3cc(F)ccc32)c1` [Compound 3-10, (E)-3-(6-Fluoro-2-oxo-1,2-dihydro-indol-3-ylidenemethyl)-N-methyl-benzenesulphonamide] the IC50 [1, 7] was 0.48 ± 0.01 µM, the IC50 [1, 8] was 0.48 ± 0.01 µM and the IC50 [2] was 4.4 ± 0.43 µM. For the same molecule, the IC50 [3] was 10.4 ± 0.23 µM, the “induction of CYP450 (CYP1A1, EROD) activity” value [4] was “did not induce CYP450 activity” and the solubility at 3 h ([5]; pH 7.4, agitation time 3 h) was 37.6 µM (≈ 12.5 µg/mL). The solubility at 24 h ([5]; pH 7.4, agitation time 24 h) was 6.32 µM (≈ 2.1 µg/mL), the “decline of Pe with time” value ([6]; 6 h to 16 h) was “½” and the “Pe (×10^−6 cm/s)” value ([6]; pH 7.4, 6 h) was 12.9 ×10^−6 cm/s. The “Pe (×10^−6 cm/s)” value ([6]; pH 7.4, 16 h) was 5.95 ×10^−6 cm/s.

`CCCNS(=O)(=O)c1cccc(C=C2C(=O)Nc3cc(Cl)ccc32)c1` [Compound 1-23, E/Z-3-(6-Chloro-2-oxo-1,2-dihydro-indol-3-ylidenemethyl)-N-propyl-benzenesulfonamide] showed an IC50 [1, 7] of 0.36 ± 0.04 µM, an IC50 [1, 8] of 0.36 ± 0.04 µM and an IC50 [2] of 1.51 ± 0.11 µM.

`O=C1Nc2cc(F)ccc2/C1=C\c1ccccc1F` [Compound 3-2, (E)-6-Fluoro-3-(2-fluoro-benzylidene)-1,3-dihydro-indol-2-one] showed an IC50 [1, 7] of 0.91 ± 0.15 µM, an IC50 [1, 8] of 0.91 ± 0.15 µM and an IC50 [2] of 1.82 ± 0.63 µM. The IC50 [3] was 2.06 ± 0.33 µM.

With `CC(C)NS(=O)(=O)c1cccc(C=C2C(=O)Nc3cc(Cl)ccc32)c1` [Compound 1-24, E/Z 3-(6-Chloro-2-oxo-1,2-dihydro-indol-3-ylidenemethyl)-N-isopropyl-benzenesulfonamide] the IC50 [1, 7] was 1.93 ± 0.34 µM, the IC50 [1, 8] was 1.93 ± 0.34 µM and the IC50 [2] was 5.46 ± 0.95 µM.

`CCNS(=O)(=O)c1cccc(/C=C2/C(=O)Nc3cc(Cl)ccc32)c1` [Compound 1-22, (E)-3-(6-Chloro-2-oxo-1,2-dihydro-indol-3-ylidenemethyl)-N-ethyl-benzenesulfonamide] showed an IC50 [1, 7] of 0.84 ± 0.09 µM, an IC50 [1, 8] of 0.84 ± 0.09 µM and an IC50 [2] of 3.96 ± 0.55 µM.

In the case of `O=C1Nc2ccc(Cl)cc2/C1=C\c1cccc(C(F)(F)F)c1` [Compound 2-7, (E)-5-Chloro-3-(3-(trifluoromethyl)benzylidene)-1,3-dihydro-indol-2-one, reference compound], the IC50 [1, 7] is reported as 0.81 ± 0.11 µM, the IC50 [1, 8] is reported as 0.81 ± 0.11 µM and the IC50 [2] is reported as 1.5 ± 0.06 µM. It also gave an IC50 [3] of 9.13 ± 1.12 µM.

`O=C1Nc2cc(F)c(F)cc2/C1=C\c1cccc(C(F)(F)F)c1` [Compound 7-6, (E)-5,6-Difluoro-3-(3-trifluoromethyl-benzylidene)-1,3-dihydro-indol-2-one] gave an IC50 [1, 7] of 0.82 ± 0.2 µM, an IC50 [1, 8] of 0.82 ± 0.2 µM and an IC50 [2] of 0.69 ± 0.02 µM. For the same molecule, the IC50 [3] was 8.53 ± 0.6 µM.

Work on `CCN(CC)CCNC(=O)c1c(C)[nH]c(/C=C2\C(=O)Nc3ccc(F)cc32)c1C` [sunitinib, reference compound] yielded an IC50 [1, 7] of 5.6 ± 0.12 µM, an IC50 [2] of 5.07 ± 0.07 µM and an IC50 [3] of 6.32 ± 1.24 µM.

With `CNS(=O)(=O)c1cccc(/C=C2/C(=O)Nc3ccc(F)cc32)c1` [Compound 4-16, (E)-3-(5-Fluoro-2-oxo-1,2-dihydro-indol-3-ylidenemethyl)-N-methyl-benzenesulphonamide] the IC50 [1, 7] was 1.18 ± 0.02 µM, the IC50 [1, 8] was 1.18 ± 0.02 µM and the IC50 [2] was 9.11 ± 0.32 µM. For the same molecule, the IC50 [3] was 9.92 ± 0.57 µM.

Molecule `CNC(=O)c1cc(Oc2ccc(NC(=O)Nc3ccc(Cl)c(C(F)(F)F)c3)cc2)ccn1` [Sorafenib, reference compound] has an IC50 [1, 7] of 5.35 ± 0.49 µM, an IC50 [2] of 5.6 ± 0.21 µM and an IC50 [3] of 11 ± 1.72 µM.

With `Cc1cccc(/C=C2/C(=O)Nc3ccc(F)cc32)c1` [Compound 4-6, (E)-5-Fluoro-3-(3-methyl-benzylidene)-1,3-dihydro-indol-2-one] the IC50 [1, 8] was greater than 30 µM.

With `CC(C)NS(=O)(=O)c1cccc(/C=C2/C(=O)Nc3cc(F)ccc32)c1` [Compound 3-13, (E)-3-(6-Fluoro-2-oxo-1,2-dihydro-indol-3-ylidenemethyl)-N-isopropyl-benzenesulfonamide] the IC50 [1, 7] was 2.29 ± 0.06 µM, the IC50 [1, 8] was 2.29 ± 0.06 µM and the IC50 [2] was 4.22 ± 0.48 µM.

`COc1ccc2c(c1)NC(=O)/C2=C/c1ccccc1C(F)(F)F` [Compound 5-5, (E) 6-Methoxy-3-(2-trifluoromethyl-benzylidene)-1,3-dihydro-indol-2-one] gave an IC50 [1, 8] of 7.04 ± 0.8 µM.

In the case of `Cc1ccc(/C=C2/C(=O)Nc3ccc(F)cc32)cc1` [Compound 4-7, (E)-5-Fluoro-3-(4-methyl-benzylidene)-1,3-dihydro-indol-2-one], the IC50 [1, 8] is reported as 20.8 ± 4.02 µM.

`O=C1Nc2ccc(Cl)cc2/C1=C\c1cccc(OC(F)(F)F)c1` [Compound 2-10, (E)-5-Chloro-3-(3-trifluoromethoxyl-benzylidene)-1,3-dihydro-indol-2-one] showed an IC50 [1, 8] of 3.83 ± 0.25 µM.

Work on `Cc1cccc(/C=C2/C(=O)Nc3cc(Cl)ccc32)c1` [Compound 1-5, (E)-6-Chloro-3-(3-methyl-benzylidene)-1,3-dihydro-indol-2-one] yielded an IC50 [1, 8] of 11 ± 0.28 µM.

`CNS(=O)(=O)c1ccc(/C=C2/C(=O)Nc3cc(Cl)ccc32)cc1` [Compound 1-21, (E)-4-(6-Chloro-2-oxo-1,2-dihydro-indol-3-ylidenemethyl)-N-methyl-benzenesulfonamide] gave an IC50 [1, 7] of 15.3 ± 0.6 µM, an IC50 [1, 8] of 15.3 ± 0.6 µM and an IC50 [2] greater than 30 µM.

Work on `NS(=O)(=O)c1cccc(C=C2C(=O)Nc3ccc(Cl)cc32)c1` [Compound 2-12, E/Z 3-(5-Chloro-2-oxo-1,2-dihydro-indol-3-ylidenemethyl)-benzenesulfonamide] yielded an IC50 [1, 8] of 9.66 ± 1.59 µM.
